Our source for the IC50 and MIC values is ChEMBL document CHEMBL1158314, “Antimycobacterial cycloartanes from Borrichia frutescens” (J Nat Prod, 1996).

In brackets after ≈: the same amount, converted by molar mass.

One assay relates to Vero. The assay is described as follows: Cytotoxicity against african green monkey Vero cells after 72 hrs. It counts as cell-based. The settings on record: Chlorocebus sabaeus.
For assay [1], the system named is Mycobacterium tuberculosis. The assay is described as follows: Antimycobacterial activity against Mycobacterium tuberculosis H37Rv after 3 days by radiorespirometric assay. It counts as functional. The settings on record: 72 h.

As to `CC(C)=C[C@H](O)C[C@@H](C)[C@H]1CC[C@@]2(C)C3=C(CC[C@]12C)[C@@]1(C)CCC(=O)C(C)(C)[C@@H]1CC3`, in the assay with Vero, the IC50 is 104 µg/mL (≈ 235 µM). This molecule also came in with an MIC in assay [1] of 64 µg/mL (≈ 145 µM).
In the case of `C[C@H](CC[C@H]1OC1(C)C)[C@H]1CC[C@@]2(C)[C@@H]3CC[C@H]4C(C)(C)C(=O)CC[C@@]45C[C@@]35CC[C@]12C`, half-maximal inhibition in the assay on Vero (IC50) required 71.8 µg/mL (≈ 163 µM). Besides, the MIC in assay [1] came to 8 µg/mL (≈ 18.2 µM).
In assay [1], `CC(=O)O[C@H]1CC[C@]23C[C@]24CC[C@]2(C)[C@@H]([C@H](C)CC[C@H]5OC5(C)C)CC[C@@]2(C)[C@@H]4CC[C@H]3C1(C)C` returned an MIC above 128 µg/mL.
With `C[C@H](CC[C@H]1OC1(C)C)[C@H]1CC[C@@]2(C)[C@@H]3CC[C@H]4C(C)(C)[C@@H](O)CC[C@@]45C[C@@]35CC[C@]12C`, in the assay with Vero, the half-inhibitory concentration (IC50) is 39.8 µg/mL (≈ 89.9 µM). The molecule further showed an MIC in assay [1] of 8 µg/mL (≈ 18.1 µM).
With `CC(C)(O)[C@@H]1CC[C@](C)([C@H]2C(O)C[C@@]3(C)[C@@H]4CC[C@H]5C(C)(C)C(=O)CC[C@@]56C[C@@]46CC[C@]23C)O1` (stereo partly specified) [ARGENTATINE A], in assay [1], the MIC is above 128 µg/mL.
Take `C[C@@H]1CC[C@H](C(C)(C)O)O[C@H]2C[C@@]3(C)[C@@H]4CC[C@H]5C(C)(C)C(=O)CC[C@@]56C[C@@]46CC[C@]3(C)[C@@H]12` [ARGENTATINE B]: in assay [1], the MIC was above 128 µg/mL.
In the assay with Vero, `CC(=O)O[C@H]1C[C@@]2(C)[C@@H](C[C@@H](O)[C@H]3[C@@]4(C)CC[C@@H](O)[C@@H](C)[C@@H]4CC[C@@]32C)/C1=C(\CCC=C(C)C)C(=O)O` [FUSIDIC ACID] had a half-maximal inhibitory concentration (IC50) of 106 µg/mL (≈ 205 µM). In addition, in assay [1], the MIC was 4 µg/mL (≈ 7.74 µM).
